Tested on: hESCs
Assay: Cytokine matrix: serum-free EB hematopoietic differentiation, surface markers by flow cytometry
Format: cell-based, human
Method: Cells were collected from each well/condition and washed once with media. The cell pellet was digested using TrypLE™ or 0.5% trypsin for 5-10 minutes in a 37° C. incubator followed by washes with media and passage through a 70-μm cell strainer. […] Non-viable cells were excluded with 7-aminoactinomycin D (7-AAD, BD Biosciences). Live cell analysis was performed on a FACSCalibur™ or Accuri flow cytometer and Cell Quest software. hESCs adapted to feeder free growth on matrigel maintained using mTESR were preconditioned for three days in the presence of X-vivo-15 containing 0.1 ng/ml TGF-β and 20 ng/ml FGF-2. Cells were harvested using TrypLE for 6 minutes at 37 C. TrypLE™ was neutralized using EB basal media containing 1 μM ROCK inhibitor (H-1152), Soybean trypsin inhibitor (0.25 mg/ml). The cells were washed once in EB basal media containing 1 μM ROCK inhibitor and soybean trypsin inhibitor (0.25 mg/ml). The cells were plated in low attachment plates in EB basal media containing 1 μM ROCK inhibitor and soybean trypsin inhibitor (0.25 mg/ml). The media was changed the next day to EB basal media containing different cytokine formulations. […] The cytokine combinations used are listed below in Table 3. The EB cultures were half fed with fresh differentiation media every two days. The EB cultures were harvested on day 8, 12 and 17 of differentiation. The EB cultures were harvested by spinning down all the cells and digesting the EBs with TrypLE™ or 0.5% trypsin. The phenotype of the progenitor cell types was analyzed by flow cytometry and the cells were plated in methylcellulose media for CFU assays. “FLT3” refers to the Flt3 ligand below.

## IL6: Interleukin-6, a pro-inflammatory cytokine
DAY 8, factor ABSENT
  CD31 expressing cells: 0.8%
  CD34 expressing cells: 0.9%
  CD43 expressing cells: 0.8%
  CD45 expressing cells: 0.2%
  FLK-1 expressing cells: 1.2%
DAY 8, factor PRESENT
  CD31 expressing cells: 0.8%
  CD34 expressing cells: 1.4%
  CD43 expressing cells: 1.0%
  CD45 expressing cells: 0.2%
  FLK-1 expressing cells: 2.6%
DAY 12, factor ABSENT
  CD31 expressing cells: 1.4%
  CD34 expressing cells: 1.7%
  CD43 expressing cells: 1.2%
  CD45 expressing cells: 1.5%
  FLK-1 expressing cells: 0.5%
DAY 12, factor PRESENT
  CD31 expressing cells: 2.5%
  CD34 expressing cells: 2.6%
  CD43 expressing cells: 3.2%
  CD45 expressing cells: 2.4%
  FLK-1 expressing cells: 0.5%
DAY 17, factor ABSENT
  CD31 expressing cells: 3.8%
  CD34 expressing cells: 1.8%
  CD43 expressing cells: 4.1%
  CD45 expressing cells: 4.1%
  FLK-1 expressing cells: 1.1%
DAY 17, factor PRESENT
  CD31 expressing cells: 9.4%
  CD34 expressing cells: 3.0%
  CD43 expressing cells: 9.9%
  CD45 expressing cells: 9.6%
  FLK-1 expressing cells: 2.5%

## GMCSF: Granulocyte-macrophage colony-stimulating factor
DAY 8, factor ABSENT
  CD31 expressing cells: 0.4%
  CD34 expressing cells: 1.0%
  CD43 expressing cells: 0.3%
  CD45 expressing cells: 0.2%
  FLK-1 expressing cells: 2.2%
DAY 8, factor PRESENT
  CD31 expressing cells: 1.1%
  CD34 expressing cells: 1.3%
  CD43 expressing cells: 1.4%
  CD45 expressing cells: 0.2%
  FLK-1 expressing cells: 1.7%
DAY 12, factor ABSENT
  CD31 expressing cells: 1.5%
  CD34 expressing cells: 1.0%
  CD43 expressing cells: 1.4%
  CD45 expressing cells: 1.3%
  FLK-1 expressing cells: 0.6%
DAY 12, factor PRESENT
  CD31 expressing cells: 2.4%
  CD34 expressing cells: 2.4%
  CD43 expressing cells: 3.0%
  CD45 expressing cells: 2.6%
  FLK-1 expressing cells: 0.4%
DAY 17, factor ABSENT
  CD31 expressing cells: 1.6%
  CD34 expressing cells: 2.1%
  CD43 expressing cells: 1.4%
  CD45 expressing cells: 0.9%
  FLK-1 expressing cells: 1.4%
DAY 17, factor PRESENT
  CD31 expressing cells: 11.3%
  CD34 expressing cells: 2.8%
  CD43 expressing cells: 12.1%
  CD45 expressing cells: 12.3%
  FLK-1 expressing cells: 2.3%
Serum free hematopoietic differentiation, days 8, 12, 17
  role during EB differentiation: play a role during later stages of EB differentiation

## EPO: Erythropoietin
DAY 8, factor ABSENT
  CD31 expressing cells: 0.8%
  CD34 expressing cells: 1.2%
  CD43 expressing cells: 1.0%
  CD45 expressing cells: 0.2%
  FLK-1 expressing cells: 2.2%
DAY 8, factor PRESENT
  CD31 expressing cells: 0.7%
  CD34 expressing cells: 1.1%
  CD43 expressing cells: 0.8%
  CD45 expressing cells: 0.2%
  FLK-1 expressing cells: 1.7%
DAY 12, factor ABSENT
  CD31 expressing cells: 2.2%
  CD34 expressing cells: 2.4%
  CD43 expressing cells: 2.1%
  CD45 expressing cells: 2.6%
  FLK-1 expressing cells: 0.8%
DAY 12, factor PRESENT
  CD31 expressing cells: 1.8%
  CD34 expressing cells: 2.0%
  CD43 expressing cells: 2.4%
  CD45 expressing cells: 1.5%
  FLK-1 expressing cells: 0.2%
DAY 17, factor ABSENT
  CD31 expressing cells: 4.6%
  CD34 expressing cells: 2.5%
  CD43 expressing cells: 5.0%
  CD45 expressing cells: 4.8%
  FLK-1 expressing cells: 1.6%
DAY 17, factor PRESENT
  CD31 expressing cells: 8.8%
  CD34 expressing cells: 2.4%
  CD43 expressing cells: 9.1%
  CD45 expressing cells: 8.9%
  FLK-1 expressing cells: 2.1%
